Measured values published in patent US9326506B2, “Preparation method, agricultural composition and applications of natural brassinolide analogs” (CHENGDU NEWSUN CROPSCIENCE CO., LTD, priority 2012, dated 2016).

Tested on: rice
Assay: Low temperature assay on rice seedlings
Format: in vivo
How it was run: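 Nine-day-old etiolated rice seedlings (grown on water at 30 °C±2 °C, dark) immersed in brassinolide analogues at 1–0.0001 mg/L or pure water, held at 1–5 °C for 24 hr. Plant height, leaf area, root weight read at 3, 6, 9, 12 days; leaf and tiller number at 12 days.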

## CC(C)[C@H](C)[C@@H](O)[C@H](O)[C@@H](C)[C@H]1CCC2C3CC(=O)C4C[C@H](O)CC[C@]4(C)C3CC[C@@]21C (stereo partly shown) [BR4]
0.0001 mg/l, 1 °C, 3 days
  Area of leaf: 9.8 cm^2
  Height: 6.8 cm
  Weight of root: 2.8 g
0.0001 mg/l, 1 °C, 6 days
  Area of leaf: 11 cm^2
  Height: 6.9 cm
  Weight of root: 3 g
0.0001 mg/l, 1 °C, 9 days
  Area of leaf: 12.2 cm^2
  Height: 7 cm
  Weight of root: 3.1 g
0.0001 mg/l, 1 °C, 12 days
  Area of leaf: 13 cm^2
  Height: 7.2 cm
  Number of leaf: 3
  Number of tiller: 3
  Weight of root: 3.5 g
0.0001 mg/l, 2 °C, 3 days
  Area of leaf: 10 cm^2
  Height: 6.8 cm
  Weight of root: 2.8 g
0.0001 mg/l, 2 °C, 6 days
  Area of leaf: 11.7 cm^2
  Height: 7 cm
  Weight of root: 3.0 g
0.0001 mg/l, 2 °C, 9 days
  Area of leaf: 12 cm^2
  Height: 7.1 cm
  Weight of root: 3.2 g
0.0001 mg/l, 2 °C, 12 days
  Area of leaf: 13 cm^2
  Height: 7.2 cm
  Number of leaf: 3
  Number of tiller: 3
  Weight of root: 3.7 g
0.0001 mg/l, 3 °C, 3 days
  Area of leaf: 10 cm^2
  Height: 6.9 cm
  Weight of root: 2.5 g
0.0001 mg/l, 3 °C, 6 days
  Area of leaf: 11.8 cm^2
  Height: 7.1 cm
  Weight of root: 2.6 g
0.0001 mg/l, 3 °C, 9 days
  Area of leaf: 12.1 cm^2
  Height: 7.4 cm
  Weight of root: 2.9 g
0.0001 mg/l, 3 °C, 12 days
  Area of leaf: 13 cm^2
  Height: 7.4 cm
  Number of leaf: 3
  Number of tiller: 2
  Weight of root: 2.9 g
0.0001 mg/l, 4 °C, 3 days
  Area of leaf: 10 cm^2
  Height: 6.9 cm
  Weight of root: 2.5 g
0.0001 mg/l, 4 °C, 6 days
  Area of leaf: 11.5 cm^2
  Height: 7.1 cm
  Weight of root: 2.6 g
0.0001 mg/l, 4 °C, 9 days
  Area of leaf: 13 cm^2
  Height: 7.5 cm
  Weight of root: 2.9 g
0.0001 mg/l, 4 °C, 12 days
  Area of leaf: 13.4 cm^2
  Height: 7.5 cm
  Number of leaf: 3
  Number of tiller: 2
  Weight of root: 2.9 g
0.0001 mg/l, 5 °C, 3 days
  Area of leaf: 10.2 cm^2
  Height: 7.0 cm
  Weight of root: 2.5 g
0.0001 mg/l, 5 °C, 6 days
  Area of leaf: 12 cm^2
  Height: 7.3 cm
  Weight of root: 2.5 g
0.0001 mg/l, 5 °C, 9 days
  Area of leaf: 13 cm^2
  Height: 7.5 cm
  Weight of root: 2.9 g
0.0001 mg/l, 5 °C, 12 days
  Area of leaf: 13.4 cm^2
  Height: 7.6 cm
  Number of leaf: 3
  Number of tiller: 2
  Weight of root: 2.9 g
0.001 mg/l, 1 °C, 3 days
  Area of leaf: 10 cm^2
  Height: 6.9 cm
  Weight of root: 2.8 g
0.001 mg/l, 1 °C, 6 days
  Area of leaf: 11.3 cm^2
  Height: 7 cm
  Weight of root: 3.1 g
0.001 mg/l, 1 °C, 9 days
  Area of leaf: 12.6 cm^2
  Height: 7.1 cm
  Weight of root: 3.2 g
0.001 mg/l, 1 °C, 12 days
  Area of leaf: 13.6 cm^2
  Height: 7.4 cm
  Number of leaf: 3
  Number of tiller: 3
  Weight of root: 3.7 g
0.001 mg/l, 2 °C, 3 days
  Area of leaf: 9.8 cm^2
  Height: 6.9 cm
  Weight of root: 2.8 g
0.001 mg/l, 2 °C, 6 days
  Area of leaf: 11.6 cm^2
  Height: 7 cm
  Weight of root: 3.0 g
0.001 mg/l, 2 °C, 9 days
  Area of leaf: 12 cm^2
  Height: 7.1 cm
  Weight of root: 3 g
0.001 mg/l, 2 °C, 12 days
  Area of leaf: 13.1 cm^2
  Height: 7.3 cm
  Number of leaf: 3
  Number of tiller: 3
  Weight of root: 3.9 g
0.001 mg/l, 3 °C, 3 days
  Area of leaf: 10 cm^2
  Height: 7 cm
  Weight of root: 2.5 g
0.001 mg/l, 3 °C, 6 days
  Area of leaf: 12 cm^2
  Height: 7.2 cm
  Weight of root: 2.6 g
0.001 mg/l, 3 °C, 9 days
  Area of leaf: 12.2 cm^2
  Height: 7.4 cm
  Weight of root: 2.9 g
0.001 mg/l, 3 °C, 12 days
  Area of leaf: 13 cm^2
  Height: 7.5 cm
  Number of leaf: 3
  Number of tiller: 2
  Weight of root: 2.9 g
0.001 mg/l, 4 °C, 3 days
  Area of leaf: 10 cm^2
  Height: 7.1 cm
  Weight of root: 2.5 g
0.001 mg/l, 4 °C, 6 days
  Area of leaf: 12 cm^2
  Height: 7.3 cm
  Weight of root: 2.6 g
0.001 mg/l, 4 °C, 9 days
  Area of leaf: 13 cm^2
  Height: 7.4 cm
  Weight of root: 2.9 g
0.001 mg/l, 4 °C, 12 days
  Area of leaf: 13.1 cm^2
  Height: 7.5 cm
  Number of leaf: 3
  Number of tiller: 2
  Weight of root: 2.9 g
0.001 mg/l, 5 °C, 3 days
  Area of leaf: 10.2 cm^2
  Height: 7.2 cm
  Weight of root: 2.8 g
0.001 mg/l, 5 °C, 6 days
  Area of leaf: 14 cm^2
  Height: 7.4 cm
  Weight of root: 2.9 g
0.001 mg/l, 5 °C, 9 days
  Area of leaf: 15.4 cm^2
  Height: 7.4 cm
  Weight of root: 3.0 g
0.001 mg/l, 5 °C, 12 days
  Area of leaf: 16 cm^2
  Height: 7.9 cm
  Number of leaf: 3
  Number of tiller: 3
  Weight of root: 3.7 g
0.01 mg/l, 1 °C, 3 days
  Area of leaf: 9.2 cm^2
  Height: 6.7 cm
  Weight of root: 2.8 g
0.01 mg/l, 1 °C, 6 days
  Area of leaf: 11.6 cm^2
  Height: 7.1 cm
  Weight of root: 3.0 g
0.01 mg/l, 1 °C, 9 days
  Area of leaf: 12.4 cm^2
  Height: 7.4 cm
  Weight of root: 3.1 g
0.01 mg/l, 1 °C, 12 days
  Area of leaf: 13.6 cm^2
  Height: 7.5 cm
  Number of leaf: 3
  Number of tiller: 3
  Weight of root: 3.9 g
0.01 mg/l, 2 °C, 3 days
  Area of leaf: 10 cm^2
  Height: 7 cm
  Weight of root: 2.8 g
0.01 mg/l, 2 °C, 6 days
  Area of leaf: 11 cm^2
  Height: 7.2 cm
  Weight of root: 3 g
0.01 mg/l, 2 °C, 9 days
  Area of leaf: 12.5 cm^2
  Height: 7.4 cm
  Weight of root: 3 g
0.01 mg/l, 2 °C, 12 days
  Area of leaf: 13.4 cm^2
  Height: 7.5 cm
  Number of leaf: 3
  Number of tiller: 3
  Weight of root: 3.2 g
0.01 mg/l, 3 °C, 3 days
  Area of leaf: 10.2 cm^2
  Height: 7 cm
  Weight of root: 2.5 g
0.01 mg/l, 3 °C, 6 days
  Area of leaf: 12 cm^2
  Height: 7.3 cm
  Weight of root: 2.6 g
0.01 mg/l, 3 °C, 9 days
  Area of leaf: 12.1 cm^2
